Measured values: PubChem BioAssay AID1963963 (Molecular Pharmacology Branch, DTP, NCI, 2024)
Values joined by “and” are separate entries in the source; they are usually repeats but may differ in a detail not shown here. Equal entries are not always repeated.

Test system: 958667-338-R-J2-PDC tumor spheroids viability
Test: Anticancer human tumor 958667-338-R-J2-PDC patient-derived colon adenocarcinoma cell line growth inhibition [PI3K]
Details: spheroids with HUVEC and MSC; for viability, T/C: stronger effect = lower value
In short: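 Multi-cell spheroids combine tumor cells with HUVEC and human MSCs, treated with targeted agents alone or with inavolisib, alpelisib, duvelisib or copanlisib. Concentrations fall in half-log steps from at or near clinical Cmax, or from 10 microM where Cmax is unknown; viability read-out.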

[1] = curve of first compound, second compound 0.0316 µM
[2] = curve of first compound, second compound 0.1 µM
[3] = curve of first compound, second compound 0.316 µM
[4] = curve of first compound, second compound 1 µM
[5] = curve of first compound, second compound 3.16 µM
[6] = curve of first compound, second compound 10 µM
[7] = second compound 0.0316 µM, first compound 0.0316 µM
[8] = second compound 0.0316 µM, first compound 0.1 µM
[9] = second compound 0.1 µM, first compound 0.0316 µM
[10] = second compound 0.1 µM, first compound 0.1 µM
[11] = second compound 0.316 µM, first compound 0.0316 µM
[12] = second compound 0.316 µM, first compound 0.1 µM
[13] = second compound 1 µM, first compound 0.0316 µM
[14] = second compound 1 µM, first compound 0.1 µM
[15] = second compound 3.16 µM, first compound 0.0316 µM
[16] = second compound 3.16 µM, first compound 0.1 µM
[17] = second compound 10 µM, first compound 0.0316 µM
[18] = second compound 10 µM, first compound 0.1 µM
[19] = second compound 0.0316 µM, first compound 0.316 µM
[20] = second compound 0.0316 µM, first compound 1 µM
[21] = second compound 0.0316 µM, first compound 3.16 µM
[22] = second compound 0.0316 µM, first compound 10 µM
[23] = second compound 0.1 µM, first compound 0.316 µM
[24] = second compound 0.1 µM, first compound 1 µM
[25] = second compound 0.1 µM, first compound 3.16 µM
[26] = second compound 0.1 µM, first compound 10 µM
[27] = second compound 0.316 µM, first compound 0.316 µM
[28] = second compound 0.316 µM, first compound 1 µM
[29] = second compound 0.316 µM, first compound 3.16 µM
[30] = second compound 0.316 µM, first compound 10 µM
[31] = second compound 1 µM, first compound 0.316 µM
[32] = second compound 1 µM, first compound 1 µM
[33] = second compound 1 µM, first compound 3.16 µM
[34] = second compound 1 µM, first compound 10 µM
[35] = second compound 3.16 µM, first compound 0.316 µM
[36] = second compound 3.16 µM, first compound 1 µM
[37] = second compound 3.16 µM, first compound 3.16 µM
[38] = second compound 3.16 µM, first compound 10 µM
[39] = second compound 10 µM, first compound 0.316 µM
[40] = second compound 10 µM, first compound 1 µM
[41] = second compound 10 µM, first compound 3.16 µM
[42] = second compound 10 µM, first compound 10 µM
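Further: spheroids exposed to compounds for seven days before readout.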

For `CC(C)n1nc(-c2ccc3oc(N)nc3c2)c2c(N)ncnc21` + Cc1nc(NC(=O)N2CCCC2C(N)=O)sc1-c1ccnc(C(C)(C)C(F)(F)F)c1, the IC50 [1] was 61.7 nM, the IC50 [2] was 60.6 nM and the IC50 [3] was 59.5 nM. For the same compound, the IC50 [4] was 41.9 nM, the IC50 [5] was 30.2 nM and the IC50 [6] was 2.2 nM. It also gave a viability, T/C (second compound 0.0316 µM, first compound 0.000316 µM) of 94%, a viability, T/C (second compound 0.0316 µM, first compound 0.001 µM) of 91.7% and a viability, T/C (second compound 0.0316 µM, first compound 0.00316 µM) of 80.9%. For the same compound, the viability, T/C (second compound 0.0316 µM, first compound 0.01 µM) was 77.8%, the viability, T/C [7] was 61.1% and the viability, T/C [8] was 41.4%. It also gave a viability, T/C (second compound 0.1 µM, first compound 0.000316 µM) of 102%, a viability, T/C (second compound 0.1 µM, first compound 0.001 µM) of 85.8% and a viability, T/C (second compound 0.1 µM, first compound 0.00316 µM) of 108%. The viability, T/C (second compound 0.1 µM, first compound 0.01 µM) was 73.7%, the viability, T/C [9] was 76.5% and the viability, T/C [10] was 33.1%. For the same compound, the viability, T/C (second compound 0.316 µM, first compound 0.000316 µM) was 77.3%, the viability, T/C (second compound 0.316 µM, first compound 0.001 µM) was 89.3% and the viability, T/C (second compound 0.316 µM, first compound 0.00316 µM) was 80.5%. For the same compound, the viability, T/C (second compound 0.316 µM, first compound 0.01 µM) was 82.2%, the viability, T/C [11] was 71.5% and the viability, T/C [12] was 32%. The viability, T/C (second compound 1 µM, first compound 0.000316 µM) was 70%, the viability, T/C (second compound 1 µM, first compound 0.001 µM) was 68.1% and the viability, T/C (second compound 1 µM, first compound 0.00316 µM) was 74.5%. For the same compound, the viability, T/C (second compound 1 µM, first compound 0.01 µM) was 79%, the viability, T/C [13] was 56% and the viability, T/C [14] was 31.4%. The viability, T/C (second compound 3.16 µM, first compound 0.000316 µM) was 72%, the viability, T/C (second compound 3.16 µM, first compound 0.001 µM) was 73.8% and the viability, T/C (second compound 3.16 µM, first compound 0.00316 µM) was 73.2%. The viability, T/C (second compound 3.16 µM, first compound 0.01 µM) was 57.5%, the viability, T/C [15] was 52% and the viability, T/C [16] was 24.3%. It also gave a viability, T/C (second compound 10 µM, first compound 0.000316 µM) of 56%, a viability, T/C (second compound 10 µM, first compound 0.001 µM) of 51.5% and a viability, T/C (second compound 10 µM, first compound 0.00316 µM) of 39.8%. It also gave a viability, T/C (second compound 10 µM, first compound 0.01 µM) of 52.9%, a viability, T/C [17] of 34.3% and a viability, T/C [18] of 21.1%.
In the case of `C=CC(=O)N1CCN(c2nc(=O)n(-c3c(C)ccnc3C(C)C)c3nc(-c4c(O)cccc4F)c(F)cc23)C(C)C1` (centres undefined), the viability, T/C (compound 0.1 µM) is reported as 108% [middle of 4 runs], the viability, T/C (compound 0.316 µM) is reported as 103% [middle of 4 runs] and the viability, T/C (compound 1 µM) is reported as 114% [middle of 4 runs]. For the same compound, the viability, T/C (compound 3.16 µM) was 113% [middle of 4 runs] and the IC50 (curve of compound) was greater than 10000 nM.
For `CC(=O)c1c(C)c2cnc(Nc3ccc(N4CCNCC4)cn3)nc2n(C2CCCC2)c1=O`, the viability, T/C (compound 0.000316 µM) was 110% [middle of 4 runs], the viability, T/C (compound 0.00316 µM) was 107% [middle of 4 runs] and the viability, T/C (compound 0.01 µM) was 109% (2×) and 88% and 111%. For the same compound, the viability, T/C (compound 0.0316 µM) was 99.5% and 114% (2×) and 106%, the viability, T/C (compound 0.1 µM) was 93.8% [middle of 4 runs] and the IC50 (curve of compound) was greater than 100 nM.
With `CCN1CCN(Cc2ccc(Nc3ncc(F)c(-c4cc(F)c5nc(C)n(C(C)C)c5c4)n3)nc2)CC1` the viability, T/C (compound 0.00316 µM) was 108% and 102% and 109%, the viability, T/C (compound 0.01 µM) was 86.7% and 90.8% and 95.2% and the viability, T/C (compound 0.0316 µM) was 91% and 87.5% and 98.1%. The viability, T/C (compound 0.1 µM) was 72.1% and 75.9% and 98.9%, the viability, T/C (compound 0.316 µM) was 78.8% and 76.1% and 79.7% and the viability, T/C (compound 1 µM) was 74.5% and 70.1% and 72.5%. It also gave an IC50 (curve of compound) greater than 1000 nM.
In the case of `CC(C)NCC(C(=O)N1CCN(c2ncnc3c2C(C)CC3O)CC1)c1ccc(Cl)cc1` (centres undefined) + Cc1nc(NC(=O)N2CCCC2C(N)=O)sc1-c1ccnc(C(C)(C)C(F)(F)F)c1, the IC50 [1] is reported as greater than 10000 nM, the IC50 [2] is reported as greater than 10000 nM and the IC50 [3] is reported as greater than 10000 nM. For the same compound, the IC50 [4] was greater than 10000 nM, the IC50 [5] was 8170 nM and the IC50 [6] was 2360 nM. The viability, T/C [7] was 108%, the viability, T/C [8] was 99.3% and the viability, T/C [19] was 96.3%. The viability, T/C [20] was 104%, the viability, T/C [21] was 91.8% and the viability, T/C [22] was 64.6%. It also gave a viability, T/C [9] of 99.4%, a viability, T/C [10] of 110% and a viability, T/C [23] of 95.6%. It also gave a viability, T/C [24] of 102%, a viability, T/C [25] of 102% and a viability, T/C [26] of 60.7%. It also gave a viability, T/C [11] of 90.7%, a viability, T/C [12] of 103% and a viability, T/C [27] of 104%. The viability, T/C [28] was 85.2%, the viability, T/C [29] was 86.9% and the viability, T/C [30] was 62.1%. It also gave a viability, T/C [13] of 107%, a viability, T/C [14] of 74.2% and a viability, T/C [31] of 87.4%. The viability, T/C [32] was 75.5%, the viability, T/C [33] was 89.9% and the viability, T/C [34] was 73.5%. The viability, T/C [15] was 74.7%, the viability, T/C [16] was 68.3% and the viability, T/C [35] was 71.8%. The viability, T/C [36] was 76.7%, the viability, T/C [37] was 68.5% and the viability, T/C [38] was 45.9%. For the same compound, the viability, T/C [17] was 57.8%, the viability, T/C [18] was 66.5% and the viability, T/C [39] was 57.2%. The viability, T/C [40] was 62.5%, the viability, T/C [41] was 46.2% and the viability, T/C [42] was 35.9%.
In the case of `CC(Cn1ccc(-c2ccc(C#N)c(Cl)c2)n1)NC(=O)c1cc(C(C)O)[nH]n1` (centres undefined) + CC(Nc1ncnc2nc[nH]c12)c1cc2cccc(Cl)c2c(=O)n1-c1ccccc1, the IC50 [1] is reported as greater than 10000 nM, the IC50 [2] is reported as greater than 10000 nM and the IC50 [3] is reported as greater than 10000 nM. It also gave an IC50 [4] greater than 10000 nM, an IC50 [5] greater than 10000 nM and an IC50 [6] greater than 10000 nM. For the same compound, the viability, T/C [7] was 85.4%, the viability, T/C [8] was 105% and the viability, T/C [19] was 85.5%. For the same compound, the viability, T/C [20] was 106%, the viability, T/C [21] was 114% and the viability, T/C [22] was 86.5%. It also gave a viability, T/C [9] of 100%, a viability, T/C [10] of 97.5% and a viability, T/C [23] of 99.9%. It also gave a viability, T/C [24] of 99.2%, a viability, T/C [25] of 99.4% and a viability, T/C [26] of 79.1%. The viability, T/C [11] was 90.7%, the viability, T/C [12] was 109% and the viability, T/C [27] was 121%. The viability, T/C [28] was 108%, the viability, T/C [29] was 85.8% and the viability, T/C [30] was 109%. The viability, T/C [13] was 119%, the viability, T/C [14] was 115% and the viability, T/C [31] was 99.8%. For the same compound, the viability, T/C [32] was 112%, the viability, T/C [33] was 101% and the viability, T/C [34] was 73.7%. For the same compound, the viability, T/C [15] was 107%, the viability, T/C [16] was 105% and the viability, T/C [35] was 121%. It also gave a viability, T/C [36] of 82.8%, a viability, T/C [37] of 101% and a viability, T/C [38] of 98.5%. It also gave a viability, T/C [17] of 77.2%, a viability, T/C [18] of 98.7% and a viability, T/C [39] of 86.7%. The viability, T/C [40] was 84.1%, the viability, T/C [41] was 91.9% and the viability, T/C [42] was 97.7%.
